Assay results taken from patent US10000476B2, “Pyridone derivative, pharmaceutical containing the same and methods of use thereof” (KAKEN PHARMACEUTICAL CO., LTD., priority 2011, dated 2018).

What was measured:
[1] = target: human MMP-8 (Homo sapiens (Human), UniProt P22894); experiment: MMP-8 inhibition test; assay type: biochemical; conditions: read-out: MMPs IC50 MMP-8
Protocol: (§1) MMP inhibition tests can be carried out, for example, using a fluorescent synthetic substrate based on the methods described in Bickett et al. (D. Mark Bickett et al., Anal. Biochem., 1993, 212, 58-64) and Nagase et al. (H. Nagase et al., J. Biol. Chem., 1994, 269, 20952-20957). The method for each MMP inhibition test is shown below.
(§2) 90 μL (29 ng) of human MMP-8 (Calbiochem #444229) was mixed with 10 μL of 10 mM APMA, and activated by reacting at 37° C. for 1 hour. 10 μL of the resultant enzyme solution was diluted to 90 μL with an assay buffer A. The mixture was added to 90 μL of a 20 μM fluorescent substrate (MOCAc-Pro-Leu-Gly-Leu-A2pr(Dnp)-Ala-Arg-NH2, Peptide Institute Inc., #3163-v) (SEQ ID NO: 3) prepared with an assay buffer B, and reacted at 37° C. for 5 hours. Enzyme activity was then determined by measuring with a fluorescence intensity meter (Labsystems, Fluoroskan Ascent) at an excitation wavelength of 320 nm and a measurement wavelength of 405 nm.
(§3) From the enzyme activity in the presence or the absence of the test substance, the inhibition rate was determined, and the 50% inhibitiory concentration (IC50) of the test substance was calculated.

[2] = target: human MMP-9 (Homo sapiens (Human), UniProt P14780); experiment: MMP-9 inhibition test; assay type: biochemical; conditions: read-out: MMPs IC50 MMP-9
Protocol: as §1
(§4) 90 μL (11 ng) of human MMP-9 (Calbiochem #444231) was mixed with 10 μL of 10 mM APMA, and activated by reacting at 37° C. for 2 hours. 10 μL of the resultant enzyme solution was diluted to 90 μL with an assay buffer A. The mixture was added to 90 μL of a 20 μM fluorescent substrate (Dnp-Pro-Cha-Gly-Cys(Me)-His-Ala-Lys(Nma)-NH2) (SEQ ID NO: 2) prepared with an assay buffer B, and reacted at 37° C. for 4 hours. Enzyme activity was then determined by measuring with a fluorescence intensity meter (Labsystems, Fluoroskan Ascent) at an excitation wavelength of 355 nm and a measurement wavelength of 460 nm.
as §3

[3] = target: human MMP-13 (Homo sapiens (Human), UniProt P45452); experiment: MMP-13 inhibition test; assay type: biochemical; conditions: read-out: MMPs IC50 MMP-13
Protocol: as §1
as §4, with “(18” for “(11”, “MMP-13” for “MMP-9”, “# CC068) or 90 μL (130 ng) of human MMP-13 (Calbiochem #444287)” for “#444231)”, “1 hour.” for “2 hours.”
as §3

[4] = target: human MMP-17 (Homo sapiens, UniProt Q9ULZ9); experiment: MMP-17 inhibition test; assay type: biochemical; conditions: read-out: MMPs IC50 MMP-17
Protocol: as §1
as §2, with “(5.8” for “(29”, “MMP-17” for “MMP-8”, “#475940) prepared” for “#444229) was mixed with 10 μL of 10 mM APMA, and activated by reacting at 37° C. for 1 hour. 10 μL of the resultant enzyme solution was diluted to 90 μL”, “A” for “A. The mixture”, “room temperature” for “37° C.”
as §3

[5] = system: auricular oedema induced by TPA in BALB/c mice; experiment: Inhibition test of auricular oedema induced by single application of TPA in mouse; assay type: in vivo; conditions: 1 w/v % solution applied topically to ear 1 hour before TPA, auricle thickness 6 hours after TPA, read-out: Auricular oedema inhibition rate (%)
Protocol: Inhibition Test of Auricular Oedema Induced by Single Application of TPA (12-O-tetradecanoylphorbol-13-acetate) in Mouse (In Vivo Efficacy Test Based on TNF-α-Related Cutaneous Inflammation)
Auricular oedema was induced by applying 54 μmol/L TPA-acetone solution on both the inner and outer sides of the left ear of BALB/c mice (application volume of 54 μmol/L TPA-acetone solution is 10 μL for each side of the left ear (i.e. 1.08 nmol TPA/auricle)). For a non-induced group, acetone was similarly applied instead of the 54 μmol/L TPA-acetone solution. The test substance was dissolved and prepared in a 1 w/v % solution of acetone containing 10 vol % DMSO (topical administration vehicle), then the test solution was applied onto both the inner and outer sides of the left ear of the mice (application volume of this test solution is 10 μL for each side of the left ear) 1 hour before the TPA application. For a control group, the topical administration vehicle was similarly applied instead of the test substance solution. For an etanercept group, 0.2 mL of a 5 mg/mL etanercept solution was intravenously administered (1 mg/mouse) the day before TPA application and 1.5 hours before TPA application. For a human IgG (hIgG) group (etanercept control group), 0.2 mL of a 5 mg/mL hIgG solution was intravenously administered (1 mg/mouse). Auricle thickness was measured under ether anesthesia the day before TPA application and 6 hours after TPA application for evaluation of the auricular oedema inhibition effect of the test substance based on the increase in auricle thickness as an index.
The auricular oedema inhibition rate (%) of the test substance was calculated based on the following formula using (A) the average value of the increase in auricular thickness of the group administered with the test substance, (B) the average value of the increase in auricular thickness of the non-induced group, and (C) the average value of the increase in auricular thickness of the control group. […]

human MMP-8, sequence (P22894 101-467): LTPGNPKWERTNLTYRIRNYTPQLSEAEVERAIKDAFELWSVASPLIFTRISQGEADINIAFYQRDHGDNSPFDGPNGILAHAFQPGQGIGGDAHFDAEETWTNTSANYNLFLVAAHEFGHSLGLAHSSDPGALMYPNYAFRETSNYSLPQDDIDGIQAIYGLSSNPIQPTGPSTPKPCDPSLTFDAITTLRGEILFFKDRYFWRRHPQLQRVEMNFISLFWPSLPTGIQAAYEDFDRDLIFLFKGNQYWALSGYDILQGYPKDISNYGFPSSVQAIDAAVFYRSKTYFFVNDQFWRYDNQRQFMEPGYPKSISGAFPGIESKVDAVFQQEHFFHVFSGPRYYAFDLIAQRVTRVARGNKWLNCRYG
human MMP-17, sequence (Q9ULZ9 126-565 limits assumed): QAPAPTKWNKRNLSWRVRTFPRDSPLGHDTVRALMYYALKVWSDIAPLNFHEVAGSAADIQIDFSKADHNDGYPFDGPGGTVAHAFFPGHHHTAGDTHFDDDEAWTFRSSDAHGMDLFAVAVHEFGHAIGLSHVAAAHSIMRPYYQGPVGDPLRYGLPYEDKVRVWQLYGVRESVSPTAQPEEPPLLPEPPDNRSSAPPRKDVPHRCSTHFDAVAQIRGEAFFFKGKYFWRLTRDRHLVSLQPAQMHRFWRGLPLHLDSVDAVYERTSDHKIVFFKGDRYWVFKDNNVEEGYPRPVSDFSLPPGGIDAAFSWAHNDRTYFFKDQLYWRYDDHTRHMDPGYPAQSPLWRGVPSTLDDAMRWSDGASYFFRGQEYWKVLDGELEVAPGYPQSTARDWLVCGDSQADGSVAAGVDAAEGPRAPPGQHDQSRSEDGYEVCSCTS
human MMP-9, sequence (P14780 107-707): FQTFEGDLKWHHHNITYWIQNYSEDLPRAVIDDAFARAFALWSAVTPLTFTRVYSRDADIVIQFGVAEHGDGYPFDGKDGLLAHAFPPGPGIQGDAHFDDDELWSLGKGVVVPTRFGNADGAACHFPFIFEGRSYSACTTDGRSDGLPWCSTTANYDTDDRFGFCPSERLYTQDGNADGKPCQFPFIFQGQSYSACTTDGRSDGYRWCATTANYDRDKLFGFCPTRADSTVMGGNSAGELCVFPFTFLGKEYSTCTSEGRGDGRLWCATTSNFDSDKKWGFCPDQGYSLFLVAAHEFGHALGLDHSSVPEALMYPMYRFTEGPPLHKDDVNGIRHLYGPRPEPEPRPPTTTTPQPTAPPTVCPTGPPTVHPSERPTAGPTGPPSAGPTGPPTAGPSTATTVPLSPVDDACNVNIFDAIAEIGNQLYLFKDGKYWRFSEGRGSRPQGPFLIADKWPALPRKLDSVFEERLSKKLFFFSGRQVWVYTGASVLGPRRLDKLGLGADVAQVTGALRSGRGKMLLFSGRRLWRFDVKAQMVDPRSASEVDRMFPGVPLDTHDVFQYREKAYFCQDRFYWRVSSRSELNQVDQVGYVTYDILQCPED

IC50 [1] | IC50 [2] | IC50 [3] | IC50 [4] | SMILES | inhibition in vivo at 10000 µg/mL [5]
16 µM | > 100 µM | > 100 µM | 30 µM | Cc1cccn(CC2(c3ccc(Cc4ccccc4)cc3)NC(=O)NC2=O)c1=O (stereo not shown) [Compound I-40, 5-(4-benzylphenyl)-5-[(3-methyl-2-oxopyridin-1(2H)-yl)methyl]imidazolidine-2,4-dione] | 63%
> 10 µM | > 100 µM | > 100 µM | 16 µM | Cc1cccn(CC2(c3ccc(Cc4ccc(F)cc4)cc3)NC(=O)NC2=O)c1=O (stereo not shown) [Compound I-41, 5-[4-(4-fluorobenzyl)phenyl]-5-[(3-methyl-2-oxopyridin-1(2H)-yl)methyl] imidazolidine-2,4-dione] | 51%
6.2 µM | > 100 µM | > 100 µM | > 100 µM | Cc1cccn(CC2(c3ccc(OCc4ccccc4)cc3)NC(=O)NC2=O)c1=O (stereo not shown) [Compound I-64] | 50%

Continued, molecule first:

SMILES | IC50 [1] | IC50 [2] | IC50 [3] | IC50 [4] | inhibition in vivo at 10000 µg/mL [5]
Cc1cccn(CC2(c3ccccc3)NC(=O)NC2=O)c1=O (stereo not shown) [Compound I-1, 5-[(3-methyl-2-oxopyridin-1(2H)-yl)methyl]-5-phenyl-imidazolidine-2,4-dione] | 21 µM | > 100 µM | 45 µM | > 100 µM | 
Cc1cccn(CC2(c3ccc(Oc4ccccc4)cc3)NC(=O)NC2=O)c1=O (stereo not shown) [Compound I-9, 5-[(3-methyl-2-oxopyridin-1(2H)-yl)methyl]-5-(4-phenoxyphenyl)imidazolidine-2,4-dione] | 14 µM | > 100 µM | > 100 µM | 21 µM | 66%
Cc1cccn(CC2(c3ccc(F)c(F)c3)NC(=O)NC2=O)c1=O (stereo not shown) [Compound I-10, 5-(3,4-difluorophenyl)-5-[(3-methyl-2-oxopyridin-1(2H)-yl)methyl] imidazolidine-2,4-dione] | 19 µM | > 100 µM | > 100 µM | > 100 µM | 46%
COc1ccc(Cl)cc1C1(Cn2cccc(C)c2=O)NC(=O)NC1=O (stereo not shown) [Compound I-27, 5-(5-chloro-2-methoxyphenyl)-5-[(3-methyl-2-oxopyridin-1(2H)-yl)methyl]imidazolidine-2,4-dione] | 16 µM | > 100 µM | > 100 µM | 57 µM | 
Cc1cccn(CC2(c3cccc(-c4cccnc4)c3)NC(=O)NC2=O)c1=O (stereo not shown) [Compound I-62] | 5 µM | 67 µM | > 100 µM | 45 µM | 47%
Cc1cccn(CC2(c3ccc(Oc4ccccc4F)cc3)NC(=O)NC2=O)c1=O (stereo not shown) [Compound I-86] | 18 µM | > 100 µM | > 100 µM | 27 µM | 68%
